Results taken from PubChem BioAssay (NCI).
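Growth conditions: 96-well plates. Treatment: test compound, 48 hours, 5 concentrations. Analysis: linear interpolation between bracketing concentrations; unreached endpoints set to highest concentration. At the GI50, growth is halved. The concentration for full growth arrest is given as TGI.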

Columns and labels:
Assay in all cases: NCI anticancer screen, dose series, 48 h
CCRF-CEM leukemia = system: CCRF-CEM leukemia
A498 renal = system: A498 renal
NCI-H460 lung = system: NCI-H460 lung
OVCAR-5 ovarian = system: OVCAR-5 ovarian
KM12 colon = system: KM12 colon
UO-31 renal = system: UO-31 renal
LOX IMVI melanoma = system: LOX IMVI melanoma
786-0 renal = system: 786-0 renal
K-562 leukemia = system: K-562 leukemia
RPMI-8226 leukemia = system: RPMI-8226 leukemia

SMILES	GI50 (CCRF-CEM leukemia)	TGI (CCRF-CEM leukemia)	GI50 (A498 renal)	GI50 (NCI-H460 lung)	TGI (NCI-H460 lung)	GI50 (OVCAR-5 ovarian)	TGI (OVCAR-5 ovarian)	GI50 (KM12 colon)	TGI (KM12 colon)	GI50 (UO-31 renal)	TGI (UO-31 renal)	GI50 (LOX IMVI melanoma)	TGI (LOX IMVI melanoma)	GI50 (786-0 renal)	TGI (786-0 renal)	GI50 (K-562 leukemia)	TGI (K-562 leukemia)	GI50 (RPMI-8226 leukemia)	TGI (RPMI-8226 leukemia)	TGI (A498 renal)
O=c1cccc(C#CCCCCOC2CCCO2)o1 (stereo not drawn)	7.14 µM	> 79.9 µM	4.09 µM	6.81 µM	> 100 µM	19.7 µM	> 41.2 µM	20400 nM	> 45.8 µM	9.07 µM	> 57.6 µM	32600 nM	> 74.5 µM	4.03 µM	23.6 µM	52300 nM	> 100 µM	2930 nM	63.7 µM	
CS(=O)(=O)c1ccc(C(F)(F)F)cc1NC(=O)Nc1cnc(Oc2ccc(-c3cc(Cl)cnc3N)cc2)nc1	3.22 µM	> 100 µM	1.78 µM	2.07 µM	4.42 µM	3.1 µM	15.9 µM		3.6 µM	1.86 µM	6.72 µM	1620 nM	3.05 µM	2.4 µM	7 µM	2230 nM	5.51 µM	2330 nM	6.53 µM	5.09 µM
CN(C)CC1(C)CC/C(=C\c2ccc3c(c2)OCO3)C1=O (stereo not drawn)		> 100 µM			> 100 µM		> 100 µM		> 100 µM		> 100 µM		> 100 µM		> 100 µM		> 100 µM		81.4 µM	> 100 µM
O=[N+]([O-])c1ccc2nc(N/N=C/c3ccc(O)cc3)sc2c1	3.28 µM	> 100 µM	5.19 µM	4.18 µM	24.2 µM	18.9 µM	> 100 µM	2720 nM	17.2 µM	8.22 µM	> 100 µM	3080 nM	10.6 µM	6.43 µM	60.5 µM	2580 nM	> 100 µM	2560 nM	15.8 µM	27.2 µM
CC1CC(=O)C(C(O)CC2CC(=O)N(c3ccccc3)C(=O)C2)C(C)C1 (stereo not drawn)		> 100 µM			> 100 µM		> 100 µM		> 100 µM		> 100 µM		> 100 µM		> 100 µM		> 100 µM		> 100 µM	> 100 µM
COCCN1C2=CCCCC2=Nc2c(N)nc(N)nc21		> 100 µM			> 100 µM		> 100 µM		> 100 µM		> 100 µM		> 100 µM		> 100 µM		> 100 µM		> 100 µM	> 100 µM
COC(=O)C(C(=O)C(=O)Nc1ccccc1OC)c1csc(-n2nc(-c3ccccc3)cc2-c2ccccc2)n1 (stereo not drawn)		> 100 µM			> 100 µM		> 100 µM		> 100 µM		> 100 µM		> 100 µM		> 100 µM		> 100 µM		> 100 µM	> 100 µM
O=C(Nc1cc(C(F)(F)F)ccc1Cl)C(=O)C(C(=O)c1ccc2ccccc2c1)C1OC(=O)c2ccccc21 (stereo not drawn)		33.7 µM			20.7 µM		24.5 µM		27.4 µM		28.2 µM		25.7 µM		17.7 µM		49.6 µM		> 54.5 µM	20.8 µM
O=C1Nc2ccccc2SC1C1SC(=S)N(Cc2ccccc2)C1=O (stereo not drawn)	1.76 µM	> 29.8 µM	14.6 µM	8.21 µM	29.8 µM	20.2 µM	37 µM	458 nM	1.99 µM	5.63 µM	22.8 µM	2080 nM	7.78 µM	5.06 µM	16.5 µM	2650 nM	> 81.1 µM	488 nM	7.39 µM	32.9 µM
O=C(O)C1Cc2nc[nH]c2CN1 (stereo not drawn)		> 100 µM			> 100 µM		> 100 µM		> 100 µM		> 100 µM		> 100 µM		> 100 µM		> 100 µM		> 100 µM	> 100 µM
Cc1cc(N2CCN(C)CC2)nc(NC2CCCC(Nc3ccnc4cc(Cl)ccc34)C2)n1 (stereo not drawn)	1.78 µM	7.34 µM	4.31 µM	2.16 µM	5.07 µM	2.88 µM	9.88 µM	2890 nM	10.1 µM	1.49 µM	2.86 µM	1770 nM	3.53 µM	1.81 µM	4.15 µM	451 nM	3.92 µM	1680 nM	4.95 µM	15.1 µM
N/C(=N\C(=S)N1CCCCC1)N1CCCCC1		> 100 µM			> 100 µM		> 100 µM		> 100 µM		> 100 µM		> 100 µM		> 100 µM		> 100 µM		> 100 µM	> 100 µM
C=C1CC2(OC1=O)c1ccccc1CCc1ccccc12		2.49 µM			26.7 µM		27.7 µM		9.4 µM		20.6 µM		2.9 µM		3.17 µM		4.81 µM		7.24 µM	41.2 µM
C=CCSc1n[nH]c(-c2cccs2)n1	> 100 µM	> 100 µM	> 100 µM	> 100 µM	> 100 µM	> 100 µM	> 100 µM	> 100000 nM	> 100 µM	> 100 µM	> 100 µM	> 100000 nM	> 100 µM	> 100 µM	> 100 µM	> 100000 nM	> 100 µM	> 100000 nM	> 100 µM	> 100 µM
Cc1ccc(NC2=C(Cl)C(=O)c3nc(C)ccc3C2=O)cc1	2.65 µM	> 100 µM	0.0538 µM	1.69 µM	4.57 µM	1.87 µM	3.62 µM	2590 nM	12.1 µM	1.53 µM	2.88 µM	711 nM	2.22 µM	1.75 µM	3.23 µM	702 nM	> 100 µM	1410 nM	4.2 µM	3.81 µM
CC1=COC2=C(C)C(=O)C(=O)c3c(C)ccc1c32		> 76.1 µM			15.4 µM		34.8 µM		26.4 µM		40.6 µM		16 µM		19.6 µM		> 100 µM		97.2 µM	41.8 µM
O=C1CCC(=O)c2cc(Br)ccc2N1		> 100 µM			> 100 µM		> 100 µM		> 100 µM		> 100 µM		> 100 µM		> 100 µM		> 100 µM		> 100 µM	> 100 µM
